{"source": "patent US20030171424A1", "about": "“Intravenous formulation of artelinic acid for treatment of severe and complicated malaria” (priority 2002, published 2003)", "key": {"[1]": {"conditions": "in vivo; cited from earlier work"}, "[2]": {"conditions": "cited from earlier work; for CNS toxicity: chronically dosed rats and dogs; for CNS toxicity versus oil soluble analogs such as artemether and arteether: rats and dogs"}, "P. coatneyi malaria": {"test_system": "P. coatneyi malaria", "assay": "AL/LY Efficacy in Uncomplicated Malaria (rhesus)", "assay_type": "in vivo", "conditions": "control animal, 7 days of IM BID", "protocol": "1. AL/LY Efficacy in Uncomplicated Malaria (done with PK trial)\ni. 10 splenectomized rhesus with mild P. coatneyi malaria (mean parasitemia 773K/μl or 11.8%) and one quinine control (773K/μl or 13.5%). All asymptomatic.\nii. 11.8 mg/kg loading dose given IV push over 3 minutes, then 5.9 mg/kg for 2 days"}, "severe malaria": {"test_system": "severe malaria", "assay": "Efficacy in Severe Malaria (rhesus)", "assay_type": "in vivo"}, "[3]": {"protocol": "The most commonly used water soluble salt for acidic drugs is sodium salt. The sodium salt of artelinic acid was prepared in our laboratory by dissolving artelinic acid in a slightly less than one equivalent mole of sodium hydroxide solution. The slight excess amount of insoluble artelinic acid was removed by extraction of the mixture with diethyl ether. The aqueous layer was evaporated under reduced pressure using a rotary evaporator to remove the small amount of volatile diethyl ether, and then lyophilized to give sodium artelinate as a white powder."}, "[4]": {"assay": "Stability of bulk salt and solutions on standing", "assay_type": "physicochemical", "from_the_text": "The precipitates were identified by NMR and x-ray crystallography to be pure artelinic acid.\nFeasibility of using preformed AL salts with three basic amino acids, L-lysine, L-arginine or L-histidine for AL intravenous formulation were studied. The basicity of histidine is too weak to form water soluble AL-histidine salt. […] Therefore, L-lysine was deemed the most feasible.\nAL/LY is soluble in water, saline, glucose solution or any IV injectable (neutral or basic) water solution. […] Therefore, for practical purpose, the preferred vehicle for intravenous injection is a normal saline or 5% glucose solution containing 0.1-0.5% L-lysine. The final osmolarity is around 290 mosm/kg."}, "P. knowlesi": {"test_system": "P. knowlesi", "conditions": "rhesus monkeys, 15 mg/kg×3 days; cited from earlier work"}, "P. berghei": {"test_system": "P. berghei", "conditions": "administered orally; cited from earlier work"}, "[5]": {"assay": "Intravenous toxicity and tolerance in rat", "assay_type": "in vivo", "conditions": "in 5% sodium carbonate vehicle", "from_the_text": "Although a ready-to-use intravenous solution in a multiple dose vial is a convenient and preferable formulation, current formulation of dissolving preformed AL/LY salt in 0.3% of L-lysine/saline solution prior to administration has been used satisfactorily to assess the efficacy and toxicity of AL in rat, Aotus and Rhesus monkey models."}, "[6]": {"conditions": "aqueous solution made in 5% sodium bicarbonate; cited from earlier work"}}}
{"molecule": "CO[C@H]1O[C@@H]2O[C@@]3(C)CC[C@H]4[C@H](C)CC[C@@H]([C@H]1C)[C@@]24OO3", "note": "[artemether, Artemether]", "values": [{"measurement": "plasma half-life", "setting": "[1]", "value": "short plasma half-life"}, {"measurement": "CNS toxicity", "setting": "[2]", "value": "fatal CNS toxicity"}]}
{"molecule": "C[C@H]1[C@H](OC(=O)CCC(=O)O)O[C@@H]2O[C@@]3(C)CC[C@H]4[C@H](C)CC[C@@H]1[C@@]24OO3", "note": "[AS, artesunic acid]", "values": [{"measurement": "CNS toxicity versus oil soluble analogs such as artemether and arteether", "setting": "[2]", "value": "substantially less CNS toxicity"}]}
{"molecule": "C=C[C@H]1C[N@@]2CC[C@H]1C[C@H]2[C@H](O)c1ccnc2ccc(OC)cc12", "note": "[quinine]", "values": [{"measurement": "day on which parasitemia cleared", "setting": "P. coatneyi malaria", "value": 8, "unit": "days"}, {"measurement": "cure", "setting": "severe malaria; IM BID for 7 days", "value": "all cured"}, {"measurement": "parasitemia cleared, mean time", "setting": "severe malaria; IM BID for 7 days", "value": 5.6, "unit": "days"}, {"measurement": "time to resolution of severe malaria symptoms", "setting": "severe malaria; IM BID for 7 days", "value": 3, "unit": "days"}, {"measurement": "survived", "setting": "severe malaria; IM BID for 7 days, controls (4 of 5)", "value": 80, "unit": "%"}, {"measurement": "died", "setting": "severe malaria; therapy delayed 24 hours", "value": 50, "unit": "%"}]}
{"molecule": "C[C@H]1[C@@H](OCc2ccc(C(=O)[O-])cc2)O[C@@H]2O[C@]3(C)CC[C@H]4[C@H](C)CC[C@@H]1[C@@]24OO3.[Na+]", "note": "[Na-AL, Sodium artelinate]", "values": [{"measurement": "solubility in distilled water", "setting": "[3]", "value": "does not dissolve completely"}, {"measurement": "solubility in sodium carbonate solution", "setting": "[3]", "value": "very soluble"}, {"measurement": "water solubility", "setting": "[3]", "value": "> 60", "unit": "mg/mL"}, {"measurement": "time the solution stayed clear", "setting": "[4]; in sodium carbonate 0.1 to 0.5%, depending on concentration", "value": "from one week to one month"}, {"measurement": "appearance of freshly prepared aqueous solution on standing", "setting": "[4]; room temperature", "value": "turned turbidity"}, {"measurement": "decomposition product on standing", "setting": "[4]; room temperature for three months", "value": "No decomposition product was detected"}, {"measurement": "crystal formation on longer standing", "setting": "[4]; sodium carbonate solutions, room temperature, longer period, free artelinic acid", "value": "crystallized out from all solutions"}, {"measurement": "cure of infection", "setting": "P. knowlesi", "value": "complete cures"}, {"measurement": "efficacy", "setting": "P. berghei", "value": "highly effective"}, {"measurement": "plasma half-life", "setting": "[1]", "value": "90 to 180", "unit": "min"}]}
{"molecule": "artelinic acid [AL]", "values": [{"measurement": "water solubility", "setting": "[3]", "value": "not water soluble"}, {"measurement": "LD50", "setting": "[5]; female rat", "value": 50, "unit": "mg/kg"}, {"measurement": "LD50", "setting": "[5]; male rat", "value": 67, "unit": "mg/kg"}, {"measurement": "CNS toxicity versus oil soluble analogs such as artemether and arteether", "setting": "[2]", "value": "substantially less CNS toxicity"}]}
{"molecule": "CCO[C@H]1O[C@@H]2O[C@@]3(C)CC[C@H]4[C@H](C)CC[C@@H]([C@H]1C)[C@@]24OO3", "note": "[arteether, Arteether]", "values": [{"measurement": "plasma half-life", "setting": "[1]", "value": "short plasma half-life"}, {"measurement": "CNS toxicity", "setting": "[2]", "value": "fatal CNS toxicity"}]}
{"molecule": "C[C@H]1[C@H](OC(=O)CCC(=O)[O-])O[C@@H]2O[C@@]3(C)CC[C@H]4[C@H](C)CC[C@@H]1[C@@]24OO3.[Na+]", "note": "[sodium artesunate, Sodium artesunate]", "values": [{"measurement": "time within which dihydroartemisinin precipitates out from unused solution", "setting": "[6]", "value": "2 to 3", "unit": "h"}, {"measurement": "plasma half-life", "setting": "[1]", "value": "20 to 30", "unit": "min"}]}
{"molecule": "CC1CCC2C(C)C(OCc3ccc(C(=O)O)cc3)OC3OC4(C)CCC1C32OO4.N=C(N)NCCCC(N)C(=O)O", "note": "(stereo not shown) [AL-arginine salt]", "values": [{"measurement": "colour of aqueous solution on standing", "setting": "[4]; room temperature, within two days to one week", "value": "turned to deep red color"}]}
